Experimental data reported in the supplement of paper PMC10883282.

Assays:
Experiment in all cases: relative viability vs DMSO control (72 h) (fraction); higher = more viable cells
G401 = test system: G401
Summary of the method: (§1)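 Sarcoma cell lines in 384-well plates, seeded to reach 80–90% confluence, were given compound after 24 h and kept 72 h at 37 °C, 5% CO2, with 0.1% DMSO vehicle and a 5 µM positive control. Relative viability came from ATPLite as percent growth, averaged over up to triplicate wells. On the rescaled values, 1 equals full and 0 equals none.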

RD-ES = test system: RD-ES
Summary of the method: as §1

HT1080 = test system: HT1080
Summary of the method: as §1

SW982 = test system: SW982
Summary of the method: as §1

SW1353 = test system: SW1353
Summary of the method: as §1

SW684 = test system: SW684
Summary of the method: as §1

SK-ES-1 = test system: SK-ES-1
Summary of the method: as §1

KHOS-240S = test system: KHOS-240S
Summary of the method: as §1

A204 = test system: A204
Summary of the method: as §1

SW872 = test system: SW872
Summary of the method: as §1

SYO-1 = test system: SYO-1
Summary of the method: as §1

KHOS-NP = test system: KHOS-NP
Summary of the method: as §1

COc1cc(Nc2ncc(F)c(Nc3ccc4c(n3)N(COP(=O)(O)O)C(=O)C(C)(C)O4)n2)cc(OC)c1OC [Fostamatinib]
Conditions	relative viability
A204, 0.00017 µM	1.07
A204, 0.00051 µM	1.08
A204, 0.00152 µM	1.07
A204, 0.00457 µM	1.07
A204, 0.01372 µM	1.07
A204, 0.04115 µM	1.02
A204, 0.1235 µM	0.954
A204, 0.3704 µM	0.763
A204, 1.111 µM	0.494
A204, 3.333 µM	0.236
A204, 10 µM	0.07
G401, 0.00017 µM	0.9887
G401, 0.00051 µM	1.01
G401, 0.00152 µM	1.03
G401, 0.00457 µM	1.07
G401, 0.01372 µM	1.004
G401, 0.04115 µM	1.05
G401, 0.1235 µM	0.986
G401, 0.3704 µM	0.962
G401, 1.111 µM	0.75
G401, 3.333 µM	0.212
G401, 10 µM	0.0346
HT1080, 0.00017 µM	1.06
HT1080, 0.00051 µM	1.07
HT1080, 0.00152 µM	1.08
HT1080, 0.00457 µM	1.07
HT1080, 0.01372 µM	1.06
HT1080, 0.04115 µM	1.06
HT1080, 0.1235 µM	1.09
HT1080, 0.3704 µM	1.101
HT1080, 1.111 µM	1.06
HT1080, 3.333 µM	0.937
HT1080, 10 µM	0.658
KHOS-240S, 0.00017 µM	1.08
KHOS-240S, 0.00051 µM	1.08
KHOS-240S, 0.00152 µM	1.08
KHOS-240S, 0.00457 µM	1.08
KHOS-240S, 0.01372 µM	1.07
KHOS-240S, 0.04115 µM	1.07
KHOS-240S, 0.1235 µM	1.01
KHOS-240S, 0.3704 µM	0.892
KHOS-240S, 1.111 µM	0.559
KHOS-240S, 3.333 µM	0.196
KHOS-240S, 10 µM	0.0301
KHOS-NP, 0.00017 µM	1.09
KHOS-NP, 0.00051 µM	1.08
KHOS-NP, 0.00152 µM	1.1
KHOS-NP, 0.00457 µM	1.091
KHOS-NP, 0.01372 µM	1.07
KHOS-NP, 0.04115 µM	1.089
KHOS-NP, 0.1235 µM	1.09
KHOS-NP, 0.3704 µM	1.05
KHOS-NP, 1.111 µM	0.98
KHOS-NP, 3.333 µM	0.64
KHOS-NP, 10 µM	0.278
RD-ES, 0.00017 µM	0.9556
RD-ES, 0.00051 µM	0.964
RD-ES, 0.00152 µM	0.9726
RD-ES, 0.00457 µM	0.958
RD-ES, 0.01372 µM	0.972
RD-ES, 0.04115 µM	0.9768
RD-ES, 0.1235 µM	0.943
RD-ES, 0.3704 µM	0.792
RD-ES, 1.111 µM	0.715
RD-ES, 3.333 µM	0.484
RD-ES, 10 µM	0.144
SK-ES-1, 0.00017 µM	1.01
SK-ES-1, 0.00051 µM	1.04
SK-ES-1, 0.00152 µM	1.03
SK-ES-1, 0.00457 µM	1.049
SK-ES-1, 0.01372 µM	1.01
SK-ES-1, 0.04115 µM	0.986
SK-ES-1, 0.1235 µM	0.813
SK-ES-1, 0.3704 µM	0.602
SK-ES-1, 1.111 µM	0.831
SK-ES-1, 3.333 µM	0.292
SK-ES-1, 10 µM	0.0769
SW684, 0.00017 µM	1.14
SW684, 0.00051 µM	1.17
SW684, 0.00152 µM	1.15
SW684, 0.00457 µM	1.17
SW684, 0.01372 µM	1.13
SW684, 0.04115 µM	1.18
SW684, 0.1235 µM	1.09
SW684, 0.3704 µM	1.03
SW684, 1.111 µM	0.877
SW684, 3.333 µM	0.618
SW684, 10 µM	0.481
SW872, 0.00017 µM	1.09
SW872, 0.00051 µM	1.07
SW872, 0.00152 µM	1.08
SW872, 0.00457 µM	1.09
SW872, 0.01372 µM	1.08
SW872, 0.04115 µM	1.05
SW872, 0.1235 µM	0.977
SW872, 0.3704 µM	0.795
SW872, 1.111 µM	0.617
SW872, 3.333 µM	0.267
SW872, 10 µM	0.202
SW982, 0.00017 µM	1.05
SW982, 0.00051 µM	1.05
SW982, 0.00152 µM	1.04
SW982, 0.00457 µM	1.06
SW982, 0.01372 µM	1.053
SW982, 0.04115 µM	1.02
SW982, 0.1235 µM	0.822
SW982, 0.3704 µM	0.66
SW982, 1.111 µM	0.507
SW982, 3.333 µM	0.216
SW982, 10 µM	0.128
SW1353, 0.00017 µM	0.996
SW1353, 0.00051 µM	0.997
SW1353, 0.00152 µM	0.997
SW1353, 0.00457 µM	1.01
SW1353, 0.01372 µM	0.9999
SW1353, 0.04115 µM	0.965
SW1353, 0.1235 µM	0.8997
SW1353, 0.3704 µM	0.773
SW1353, 1.111 µM	0.6
SW1353, 3.333 µM	0.296
SW1353, 10 µM	0.256
SYO-1, 0.00017 µM	0.964
SYO-1, 0.00051 µM	0.953
SYO-1, 0.00152 µM	0.969
SYO-1, 0.00457 µM	0.958
SYO-1, 0.01372 µM	0.966
SYO-1, 0.04115 µM	0.922
SYO-1, 0.1235 µM	0.912
SYO-1, 0.3704 µM	0.656
SYO-1, 1.111 µM	0.379
SYO-1, 3.333 µM	0.22
SYO-1, 10 µM	0.167
